# Several values for one entry are separate records, joined by “and”; a condition that tells them apart may be missing. Identical values can stand only once.
# Columns and labels:
# Format in all cases: in vivo, mouse
# [1] = test system: c-Fos; assay: Striatal c-Fos immunohistochemistry 1 h after single injection; conditions: single injection 20 mg/kg i.p., individual mice
# Description: Immunohistochemistry was performed as described in Papale et al ([2016]). Briefly, 1 h after blocking in 5% normal goat serum and 0.1% Triton X‐100 solution, free‐floating sections were incubated overnight at 4°C with one of the following primary antibodies: anti‐phospho‐p44/42 MAP kinase (Thr202/Tyr204) (1:200, Cell Signaling Technology #9101), anti‐phospho–Elk‐1 (Ser383) (1:100, Cell Signaling #9181), anti‐phospho‐Kv4.2 (Thr607)‐R (1:100, Santa Cruz sc22254‐R), anti‐phospho‐MSK‐1 (1:100 Cell Signaling Technology #9595), anti‐phospho‐MEK1/2 (Ser218/222) (1:100, sc‐7995 Santa Cruz Biotechnology), c‐Fos (1:100, sc‐52 Santa Cruz Biotechnology), tyrosine Hydroxylase (monoclonal 1:1,000, Sigma Aldrich, Italy) and anti‐DARPP‐32 (H3) (1:100, Santa Cruz Biotechnology, #sc‐271111) overnight at 4°C. […]
# For in vivo immunohistochemistry experiments, images were acquired from the dorsal striatum using a Leica DM IRB microscope under a 20× objective. The number of p‐ERK, p‐MSK‐1, p‐ELK, p‐MEK‐1, p‐VG K+, c‐Fos, and DARPP‐32 positive cells was counted in 2–3 consecutive sections per mouse, bilaterally and averaged across the sections using the ImageJ software by a blind investigator to the condition. Estimation of nigral cell loss was assessed by quantifying the number of TH‐immunopositive neurons of the SNc in 360 μm‐spaced sections for each animal.
# [2] = test system: procedural learning (nose poke responses); assay: 9-hole operant boxes, FR1 nose poke, zQ175 mice with RB5; conditions: for FR1 nose poke, AUC analysis: 20 mg/kg i.p. 1 h before session; for Nose poke responses (FR1): 9 days of treatment, 20 mg/kg i.p.
# Description: Operant testing was conducted in 16 9‐hole operant boxes as previously described (Yhnell et al, [2016a]). Each operant box contains a horizontal array of nine holes with infrared beams localized to the front of each hole to detect nose pokes. A peristaltic pump delivers liquid reinforcement (strawberry milk) into a magazine at the front of the box.
# A week before starting the training, mice underwent water restriction for 18 h/day and were kept under this regimen throughout the experimental procedures. Mice were taught to nose poke on a simple fixed ratio (FR1) schedule of reinforcement: to obtain reward, mice were required to respond to a stimulus light in the central hole via a single nose poke. zQ175 mice were trained daily on this program for 20‐min sessions for 10 days (training phase). Once trained, animals were subdivided into four groups and injected with RB5 or scramble (20 mg/kg, i.p.) peptides 1 h before being tested on the FR1 schedule for the other 9 days. At the end of the behavioral tests, mice were perfused with 4% PFA, and brains were processed for IHC or IF.
# [3] = test system: contextual fear memory; assay: Contextual fear conditioning, Tg2576 and WT mice; set-up: unit not given here; conditions: 7 months, 20 mg/kg i.p. 1 h before CFC, test 24 h later, individual mice
# Description: Tg2576 mice were administered with RB5 or Scramble (20 mg/kg i.p.) for either 7 days, for IHC analysis, or with a single injection (20 mg/kg i.p.), for behavioral analysis.
# 7‐month‐old Tg2576 mice and WT mice were treated with either Scramble or RB5 (20 mg/kg, i.p.) 1 h before CFC. Mice were individually placed in the conditioning chamber for 120 s of free exploration followed by five foot‐shocks (0.7 mA, 2‐s duration, separated by 60‐s intervals) delivered through the grid floor. Context Fear Memory was assessed 24 h later by returning mice for 5 min to the conditioning chamber and not delivering a foot shock.
# For all protocols, freezing behavior served as a measure of conditioned fear to the context during the conditioning and retrieval tests.
# [4] = test system: 3-NP-induced striatal apoptosis; assay: TUNEL assay in striatum, 3-NP model with RB5; conditions: 7 days, individual mice
# Description: The detection of apoptosis on cultured cells or tissue sections was carried out using the DeadEnd™ Colorimetric TUNEL System kit (Promega). Cultured cells were fixed in 4% PFA for 15 min at room temperature before undergoing TUNEL staining. Tissue sections were obtained from mice perfused with 4% PFA. Brains were subsequently stored in 30% sucrose overnight and cut into 35 μm‐thick slices using a freezing microtome. Slices were mounted on slides and processed for TUNEL staining. TUNEL was performed following the manufacturer's instructions. Briefly, slides were immersed in PBS for 5 min RT and then incubated for 25 min in a […] Proteinase K solution. Then, the slides were rinsed in 1× PBS, re‐fixed in 4% PFA for 5 min, and rinsed twice with 1× PBS. […] of equilibration buffer were added to each tissue section for 5–10 min followed by 1 h of incubation at 37°C in a humidified chamber with […] of rTdT reaction mix. After that, slides were immersed in 2× SSC solution in a Coplin jar for 15 min and washed twice in PBS 1× for 5 min. The endogenous peroxidase activity was blocked with 0.3% hydrogen peroxide for 5 min. The slides were rinsed twice in 1× PBS for 5 min and incubated for 30 min with Streptavidin HRP solution and finally DAB substrate was added to react for 10 min. A light microscope was used to acquire four representative fields per slide from cultured cells and 3–4 representative slices per mouse from all experimental groups. The number of TUNEL positive cells was counted using ImageJ software.
# 3‐NP (3‐Nitropropionic acid) (N5636, Sigma) was dissolved in distilled water to a concentration of 50 mg/ml (pH 7.4) and passed through a 0.2‐μm filter and kept at −80°C until use. The 3‐NP solution was administered i.p. once daily at a dose of 50 mg/kg either for 21 consecutive days in the LV‐injected mice or for 7 days in combination with RB5.
# [5] = peptide 20 mg/kg i.p. twice a day plus 3-NP 50 mg/kg i.p. once a day
# [6] = peptide 20 mg/kg i.p. twice a day plus saline
Substance,c-Fos positive cells in striatum [1],"FR1 nose poke, AUC analysis ([2]; WT females, treatment day 1)","FR1 nose poke, AUC analysis ([2]; WT females, treatment day 2)","FR1 nose poke, AUC analysis ([2]; WT females, treatment day 3)","FR1 nose poke, AUC analysis ([2]; WT females, treatment day 4)","FR1 nose poke, AUC analysis ([2]; WT females, treatment day 5)","FR1 nose poke, AUC analysis ([2]; WT females, treatment day 6)","FR1 nose poke, AUC analysis ([2]; WT females, treatment day 7)","FR1 nose poke, AUC analysis ([2]; WT females, treatment day 8)","FR1 nose poke, AUC analysis ([2]; WT females, treatment day 9)","FR1 nose poke, AUC analysis ([2]; zQ175 females, treatment day 1)","FR1 nose poke, AUC analysis ([2]; zQ175 females, treatment day 2)","FR1 nose poke, AUC analysis ([2]; zQ175 females, treatment day 3)","FR1 nose poke, AUC analysis ([2]; zQ175 females, treatment day 4)","FR1 nose poke, AUC analysis ([2]; zQ175 females, treatment day 5)","FR1 nose poke, AUC analysis ([2]; zQ175 females, treatment day 6)","FR1 nose poke, AUC analysis ([2]; zQ175 females, treatment day 7)","FR1 nose poke, AUC analysis ([2]; zQ175 females, treatment day 8)","FR1 nose poke, AUC analysis ([2]; zQ175 females, treatment day 9)","Freezing behavior, contextual fear memory ([3]; Tg2576 mice)",other results
SCR: ineffective Scramble version of RB5 containing a TAT sequence (GRKKRRQRRRPPRVGPGVPEGVGVAVFGVKEPGQTGDVGPVGE) [reference compound],461.905 and 395.238 and 423.81 and 380.952 and 419.048 and 352.381 and 438.095 and 376.19 and 604.762 and 404.762 and 590.476 and 552.381 and 490.476 and 290.476,426,494,529,551,606,632,637,652,625,79.44,88.63,81.25,82.51,86.56,92.15,90.83,92.99,83.24,28.67 and 36 and 36.67 and 25.33 and 43.67 and 29.67 and 28,"Freezing behavior, contextual fear memory ([3]; WT mice): 96.67 and 87.67 and 96.33 and 88.67 and 64 and 57.67 and 82.67; TUNEL positive cells in striatum [4, 5]: 360.976 and 175.61 and 179.533 and 215.44 and 403.95 and 136.585 and 370.732; TUNEL positive cells in striatum [4, 6]: 87.8049 and 58.5366 and 107.72 and 89.7666 and 104.728 and 165.854"
"GRKKRRQRRRPPQGGGGGEPRRTEGVGPGVPGEVEMVKGQPFDV [RB5, six D-amino acids, acetylated N-terminus]",selectively activated and 771.429 and 809.524 and 757.143 and 976.19 and 723.81 and 795.238 and 914.286 and 857.143 and 814.286 and 852.381 and 738.095 and 761.905 and 961.905 and 728.571,696.2,784.67,771.56,796.53,786.86,819.62,786.91,844.4,832.09,293.69,300.15,373.09,374.4,384.76,413.69,454.91,338.07,338.07,fully prevented the memory impairment and 56.33 and 63.67 and 67 and 57.33 and 84 and 76.33 and 95.67 and 82.67,"Nose poke responses (FR1) ([2]; WT and zQ175 females): significantly enhanced responses; Nose poke responses (FR1) ([2]; zQ175 males): did not alter responses; Freezing behavior, contextual fear memory ([3]; WT mice): 93.33 and 94.33 and 78 and 88.33 and 70.33 and 78.33 and 85; TUNEL positive cells in striatum [4, 5]: significantly reduced neuronal death and 87.8049 and 8.8692 and 39.0244 and 107.72 and 134.65 and 179.533 and 163.212 and 136.585 and 117.073; TUNEL positive cells in striatum [4, 6]: 29.2683 and 60.9756 and 89.7666 and 81.606 and 71.8133 and 143.627 and 134.65 and 43.3604"

# Reference: article PMC10630888, “Nuclear ERK1/2 signaling potentiation enhances neuroprotection and cognition via Importinα1/KPNA2” (EMBO Molecular Medicine, 2023)
